Measurements: ChEMBL document CHEMBL1201861, “Genomics of Drug Sensitity in Cancer screening data, Wellcome Trust Sanger Institute”

Tests used:
Assay in all cases: cells
CW-2 = format: functional, cell-based, Homo sapiens; conditions: Homo sapiens, CW-2;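 note: growth inhibition of CW-2 cells, read out by a cell viability assay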
Description: SANGER: Inhibition of human CW-2 cell growth in a cell viability assay.

D-502MG = format: functional, cell-based, Homo sapiens; conditions: Homo sapiens, D-502MG
Description: SANGER: Inhibition of human D-502MG cell growth in a cell viability assay.

DMS-114 = format: functional, cell-based, Homo sapiens; conditions: Homo sapiens, DMS-114
DMS-79 = format: functional, cell-based; conditions: Homo sapiens;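 note: growth inhibition measured with a cell viability assay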
Description: SANGER: Inhibition of human DMS-79 cell growth in a cell viability assay.

EM-2 = format: functional, cell-based; conditions: Homo sapiens;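 note: growth inhibition of EM-2 cells, read out with a cell viability assay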
Description: SANGER: Inhibition of human EM-2 cell growth in a cell viability assay.

ES3 = format: functional, cell-based, Homo sapiens; conditions: Homo sapiens, ES3;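 note: growth inhibition of ES3 cells, read out with a cell viability assay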
Description: SANGER: Inhibition of human ES3 cell growth in a cell viability assay.

EW-3 = format: functional, cell-based; conditions: Homo sapiens;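 note: cell viability assay read-out, IC50 reflects inhibition of growth of the EW-3 cells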
Description: SANGER: Inhibition of human EW-3 cell growth in a cell viability assay.

FaDu = format: functional, cell-based, Homo sapiens; conditions: Homo sapiens, FaDu;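 note: cell viability readout of growth inhibition in FaDu cells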
Description: SANGER: Inhibition of human FADU cell growth in a cell viability assay.

G-402 = format: functional, cell-based, Homo sapiens; conditions: Homo sapiens, G-402
Description: SANGER: Inhibition of human G-402 cell growth in a cell viability assay.

HCC1954 = format: functional, cell-based, Homo sapiens; conditions: Homo sapiens, HCC1954;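 note: growth inhibition of human HCC1954 cells, read out with a cell viability assay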
Description: SANGER: Inhibition of human HCC1954 cell growth in a cell viability assay.

HH = format: functional, cell-based; conditions: Homo sapiens
Description: SANGER: Inhibition of human HH cell growth in a cell viability assay.

HuTu80 = format: functional, cell-based, Homo sapiens, HUTU-80; conditions: Homo sapiens, HuTu80;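 note: growth inhibition of HuTu80 human cells, determined with a cell viability readout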
Description: SANGER: Inhibition of human HUTU-80 cell growth in a cell viability assay.

JEG-3 = format: functional, cell-based, Homo sapiens; conditions: Homo sapiens, JEG-3;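 note: growth inhibition of human JEG-3 cells, read out with a cell viability assay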
Description: SANGER: Inhibition of human JEG-3 cell growth in a cell viability assay.

KY821 = format: functional, cell-based; conditions: Homo sapiens;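 note: growth inhibition of human KY821 cells, read out by a cell viability assay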
Description: SANGER: Inhibition of human KY821 cell growth in a cell viability assay.

LB831-BLC = format: functional, cell-based, Homo sapiens; conditions: Homo sapiens, LB831-BLC;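 note: growth inhibition of LB831-BLC cells, read out with a cell viability assay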
Description: SANGER: Inhibition of human LB831-BLC cell growth in a cell viability assay.

LS-1034 = format: functional, cell-based, Homo sapiens; conditions: Homo sapiens, LS-1034
Description: SANGER: Inhibition of human LS-1034 cell growth in a cell viability assay.

M14 = format: functional, cell-based, Homo sapiens; conditions: Homo sapiens, M14;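 note: growth inhibition of M14 cells, read out with a cell viability assay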
Description: SANGER: Inhibition of human M14 cell growth in a cell viability assay.

MDA-MB-175-VII = format: functional, cell-based, Homo sapiens; conditions: Homo sapiens, MDA-MB-175-VII
MLMA = format: functional, cell-based, Homo sapiens; conditions: Homo sapiens, MLMA;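 note: growth inhibition of MLMA cells (human), determined through a cell viability readout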
Description: SANGER: Inhibition of human MLMA cell growth in a cell viability assay.

MMAC-SF = format: functional, cell-based, Homo sapiens; conditions: Homo sapiens, MMAC-SF;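 note: growth inhibition of human MMAC-SF cells, read out with a cell viability assay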
Description: SANGER: Inhibition of human MMAC-SF cell growth in a cell viability assay.

MV4-11 = format: functional, cell-based, MV-4-11; conditions: Homo sapiens;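 note: cell viability readout measuring growth inhibition of human MV-4-11 cells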
Description: SANGER: Inhibition of human MV-4-11 cell growth in a cell viability assay.

Mo = format: functional, cell-based; conditions: Homo sapiens
Description: SANGER: Inhibition of human Mo-T cell growth in a cell viability assay.

NB10 = format: functional, cell-based, Homo sapiens; conditions: Homo sapiens, NB10;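 note: growth inhibition of NB10 cells, read out by a cell viability assay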
Description: SANGER: Inhibition of human NB10 cell growth in a cell viability assay.

NB13 = format: functional, cell-based, Homo sapiens; conditions: Homo sapiens, NB13;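 note: cell viability readout measuring growth inhibition of human NB13 cells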
Description: SANGER: Inhibition of human NB13 cell growth in a cell viability assay.

NCI-H1092 = format: functional, cell-based; conditions: Homo sapiens;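 note: cell growth inhibition measured with a cell viability assay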
Description: SANGER: Inhibition of human NCI-H1092 cell growth in a cell viability assay.

NCI-H1155 = format: functional, cell-based; conditions: Homo sapiens;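 note: cell growth inhibition measured by a viability assay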
Description: SANGER: Inhibition of human NCI-H1155 cell growth in a cell viability assay.

NCI-H1437 = format: functional, cell-based, Homo sapiens; conditions: Homo sapiens, NCI-H1437;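 note: growth inhibition of human NCI-H1437 cells, read out by a cell viability assay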
Description: SANGER: Inhibition of human NCI-H1437 cell growth in a cell viability assay.

NCI-H1581 = format: functional, cell-based, Homo sapiens; conditions: Homo sapiens, NCI-H1581;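 note: cell growth inhibition read out by a viability assay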
Description: SANGER: Inhibition of human NCI-H1581 cell growth in a cell viability assay.

NCI-H209 = format: functional, cell-based; conditions: Homo sapiens;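 note: growth inhibition of human NCI-H209 cells, measured by a cell viability assay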
Description: SANGER: Inhibition of human NCI-H209 cell growth in a cell viability assay.

NCI-H2170 = format: functional, cell-based, Homo sapiens; conditions: Homo sapiens, NCI-H2170;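 note: cell viability assay measuring growth inhibition of human NCI-H2170 cancer cells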
Description: SANGER: Inhibition of human NCI-H2170 cell growth in a cell viability assay.

SNU1 = format: functional, cell-based; conditions: Homo sapiens;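 note: growth inhibition of human NCI-SNU-1 cells, measured with a cell viability assay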
Description: SANGER: Inhibition of human NCI-SNU-1 cell growth in a cell viability assay.

NEC8 = format: functional, cell-based, Homo sapiens; conditions: Homo sapiens, NEC8;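 note: growth inhibition of human NEC8 cells, read out by a cell viability assay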
Description: SANGER: Inhibition of human NEC8 cell growth in a cell viability assay.

OE19 = format: functional, cell-based, Homo sapiens; conditions: Homo sapiens, OE19;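 note: growth inhibition of OE19 cells, measured through a cell viability read-out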
Description: SANGER: Inhibition of human OE19 cell growth in a cell viability assay.

P30-OHK = format: functional, cell-based; conditions: Homo sapiens;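 note: growth inhibition of the P30-OHK cell line, read out with a cell viability assay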
Description: SANGER: Inhibition of human P30-OHK cell growth in a cell viability assay.

PANC-03-27 = format: functional, cell-based, Homo sapiens; conditions: Homo sapiens, PANC-03-27
Description: SANGER: Inhibition of human PANC-03-27 cell growth in a cell viability assay.

RCM-1 = format: functional, cell-based, Homo sapiens; conditions: Homo sapiens, RCM-1;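 note: growth inhibition of the RCM-1 line, determined with a cell viability readout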
Description: SANGER: Inhibition of human RCM-1 cell growth in a cell viability assay.

Ramos-2G6-4C10 = format: functional, cell-based; conditions: Homo sapiens;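 note: growth inhibition of the cell line, measured by a cell viability read-out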
Description: SANGER: Inhibition of human Ramos-2G6-4C10 cell growth in a cell viability assay.

SCC-4 = format: functional, cell-based, Homo sapiens; conditions: Homo sapiens, SCC-4;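 note: growth inhibition of human SCC-4 cells, read out as cell viability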
Description: SANGER: Inhibition of human SCC-4 cell growth in a cell viability assay.

SW1463 = format: functional, cell-based, Homo sapiens; conditions: Homo sapiens, SW1463;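 note: growth inhibition of SW1463 cells, determined with a cell viability assay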
Description: SANGER: Inhibition of human SW1463 cell growth in a cell viability assay.

SW-620 = format: functional, cell-based, Homo sapiens; conditions: Homo sapiens, SW-620;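 note: growth inhibition of human SW-620 cells, measured by a cell viability assay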
Description: SANGER: Inhibition of human SW620 cell growth in a cell viability assay.

CWR22R = format: functional, cell-based, Homo sapiens; conditions: Homo sapiens, 22Rv1;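 note: growth inhibition of 22Rv1 cells, read out with a cell viability assay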
Description: SANGER: Inhibition of human 22RV1 cell growth in a cell viability assay.

697 = format: functional, cell-based; conditions: Homo sapiens
Description: SANGER: Inhibition of human 697 cell growth in a cell viability assay.

8-MG-BA = format: functional, cell-based, Homo sapiens; conditions: Homo sapiens, 8-MG-BA;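 note: growth inhibition of 8-MG-BA cells, read out with a cell viability assay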
Description: SANGER: Inhibition of human 8-MG-BA cell growth in a cell viability assay.

AM-38 = format: functional, cell-based, Homo sapiens; conditions: Homo sapiens, AM-38;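 note: growth inhibition of AM-38 cells of human origin, read out by a cell viability assay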
Description: SANGER: Inhibition of human AM-38 cell growth in a cell viability assay.

BE-13 = format: functional, cell-based; conditions: Homo sapiens;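 note: growth inhibition of human BE-13 cells, measured with a cell viability assay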
Description: SANGER: Inhibition of human BE-13 cell growth in a cell viability assay.

BHY = format: functional, cell-based, Homo sapiens; conditions: Homo sapiens, BHY;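 note: cell growth inhibition read out by a viability assay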
Description: SANGER: Inhibition of human BHY cell growth in a cell viability assay.

BT-474 = format: functional, cell-based, Homo sapiens; conditions: Homo sapiens, BT-474
Description: SANGER: Inhibition of human BT-474 cell growth in a cell viability assay.

BXPC-3 = format: functional, cell-based, Homo sapiens; conditions: Homo sapiens, BXPC-3;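 note: growth inhibition of human BxPC-3 cells, read out by a cell viability assay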
Description: SANGER: Inhibition of human BxPC-3 cell growth in a cell viability assay.

C2BBe1 = format: functional, cell-based, Homo sapiens; conditions: Homo sapiens, C2BBe1;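 note: growth inhibition of C2BBe1 cells, read out through a viability assay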
Description: SANGER: Inhibition of human C2BBe1 cell growth in a cell viability assay.

U-87 MG = format: functional, cell-based, U-87MG ATCC; conditions: Homo sapiens;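 note: growth inhibition of the cells measured with a viability assay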
Description: SANGER: Inhibition of human U-87-MG cell growth in a cell viability assay.

U-251 = format: functional, cell-based, Homo sapiens; conditions: Homo sapiens, U-251;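 note: growth inhibition of human U-251 cells, read out through a cell viability assay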
Description: SANGER: Inhibition of human U251 cell growth in a cell viability assay.

UMC-11 = format: functional, cell-based, Homo sapiens; conditions: Homo sapiens, UMC-11;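 note: growth inhibition of UMC-11 cells, read out with a cell viability assay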
Description: SANGER: Inhibition of human UMC-11 cell growth in a cell viability assay.

COLO-684 = format: functional, cell-based; conditions: Homo sapiens
Description: SANGER: Inhibition of human COLO-684 cell growth in a cell viability assay.

C[C@]1(O)C[C@@H](c2nc(-c3ccc4ccc(-c5ccccc5)nc4c3)c3c(N)nccn32)C1 [LINSITINIB]
IC50 (CW-2): > 2560 nM
IC50 (D-502MG): > 2560 nM
IC50 (DMS-114): > 2560 nM
IC50 (DMS-79): > 2560 nM
IC50 (EM-2): > 2560 nM
IC50 (ES3): 1120 nM
IC50 (EW-3): 2100 nM
IC50 (FaDu): > 2560 nM
IC50 (G-402): > 2560 nM
IC50 (HCC1954): > 2560 nM
IC50 (HH): > 2560 nM
IC50 (HuTu80): > 2560 nM
IC50 (JEG-3): > 2560 nM
IC50 (KY821): > 2560 nM
IC50 (LB831-BLC): > 2560 nM
IC50 (LS-1034): 271 nM
IC50 (M14): > 2560 nM
IC50 (MDA-MB-175-VII): > 2560 nM
IC50 (MLMA): > 2560 nM
IC50 (MMAC-SF): > 2560 nM
IC50 (MV4-11): > 2560 nM
IC50 (Mo): > 2560 nM
IC50 (NB10): 454 nM
IC50 (NB13): > 2560 nM
IC50 (NCI-H1092): > 2560 nM
IC50 (NCI-H1155): > 2560 nM
IC50 (NCI-H1437): > 2560 nM
IC50 (NCI-H1581): > 2560 nM
IC50 (NCI-H209): > 2560 nM
IC50 (NCI-H2170): > 2560 nM
IC50 (SNU1): > 2560 nM
IC50 (NEC8): > 2560 nM
IC50 (OE19): > 2560 nM
IC50 (P30-OHK): > 2560 nM
IC50 (PANC-03-27): > 2560 nM
IC50 (RCM-1): > 2560 nM
IC50 (Ramos-2G6-4C10): > 2560 nM
IC50 (SCC-4): > 2560 nM
IC50 (SW1463): > 2560 nM
IC50 (SW-620): > 2560 nM
IC50 (CWR22R): > 2560 nM
IC50 697: > 2560 nM
IC50 (8-MG-BA): > 2560 nM
IC50 (AM-38): > 2560 nM
IC50 (BE-13): > 2560 nM
IC50 (BHY): > 2560 nM
IC50 (BT-474): > 2560 nM
IC50 (BXPC-3): > 2560 nM
IC50 (C2BBe1): > 2560 nM
IC50 (U-87 MG): > 2560 nM
IC50 (U-251): > 2560 nM
IC50 (UMC-11): > 2560 nM
IC50 (COLO-684): > 2560 nM

C=CCc1cccc(/C=N/NC(=O)CN2CCN(Cc3ccccc3)CC2)c1O [PAC-1]
IC50 (CW-2): > 2560 nM
IC50 (D-502MG): > 2560 nM
IC50 (DMS-114): > 2560 nM
IC50 (DMS-79): > 2560 nM
IC50 (EM-2): > 2560 nM
IC50 (ES3): > 2560 nM
IC50 (EW-3): > 2560 nM
IC50 (FaDu): > 2560 nM
IC50 (G-402): > 2560 nM
IC50 (HCC1954): > 2560 nM
IC50 (HH): > 2560 nM
IC50 (HuTu80): > 2560 nM
IC50 (JEG-3): > 2560 nM
IC50 (KY821): > 2560 nM
IC50 (LB831-BLC): > 2560 nM
IC50 (LS-1034): > 2560 nM
IC50 (M14): > 2560 nM
IC50 (MDA-MB-175-VII): > 2560 nM
IC50 (MLMA): > 2560 nM
IC50 (MMAC-SF): > 2560 nM
IC50 (MV4-11): > 2560 nM
IC50 (Mo): > 2560 nM
IC50 (NB10): > 2560 nM
IC50 (NB13): > 2560 nM
IC50 (NCI-H1092): > 2560 nM
IC50 (NCI-H1155): > 2560 nM
IC50 (NCI-H1437): 2230 nM
IC50 (NCI-H1581): > 2560 nM
IC50 (NCI-H209): > 2560 nM
IC50 (NCI-H2170): > 2560 nM
IC50 (SNU1): > 2560 nM
IC50 (NEC8): > 2560 nM
IC50 (OE19): > 2560 nM
IC50 (P30-OHK): > 2560 nM
IC50 (PANC-03-27): 760 nM
IC50 (RCM-1): > 2560 nM
IC50 (Ramos-2G6-4C10): > 2560 nM
IC50 (SCC-4): > 2560 nM
IC50 (SW1463): > 2560 nM
IC50 (SW-620): > 2560 nM
IC50 (CWR22R): > 2560 nM
IC50 697: 910 nM
IC50 (8-MG-BA): > 2560 nM
IC50 (AM-38): > 2560 nM
IC50 (BE-13): > 2560 nM
IC50 (BHY): > 2560 nM
IC50 (BT-474): > 2560 nM
IC50 (BXPC-3): 2090 nM
IC50 (C2BBe1): > 2560 nM
IC50 (U-87 MG): > 2560 nM
IC50 (U-251): > 2560 nM
IC50 (UMC-11): > 2560 nM
IC50 (COLO-684): > 2560 nM
